We go through one compound from ChEMBL document CHEMBL3045518, “Synthesis of novel 3-[5-ethyl-2-(2-phenoxy-ethyl)-pyridin]-5-substituted isoxazoline libraries via 1,3-dipolar cycloaddition and evaluation of antimicrobial activities” (2006).

Common to all, as to type: functional
The test system of assay [1] is Escherichia coli. The experiment in a line: Antibacterial activity against Escherichia coli at 25 ug/disk after 24 hr by disk diffusion method. As to conditions: read-out: DIZ.
Assay [2] relates to Pseudomonas fluorescens. Description: Antibacterial activity against Pseudomonas fluorescens by microdilution method. In general terms: Broth dilution looks for growth in wells or tubes with falling amounts of substance.
The subject of assay [3] is Xanthomonas oryzae. Description: Antibacterial activity against Xanthomonas oryzae at 25 ug/disk after 24 hr by disk diffusion method. As to conditions: read-out: DIZ. In general terms: Agar diffusion results depend on both activity and mobility in agar.
Assay [4] has as its system Pseudomonas fluorescens. Description: Antibacterial activity against Pseudomonas fluorescens at 25 ug/disk after 24 hr by disk diffusion method. The following applies: read-out: DIZ.
The test system of assay [5] is Bacillus subtilis. Description: Antibacterial activity against Bacillus subtilis at 25 ug/disk after 24 hr by disk diffusion method. As to conditions: read-out: DIZ.
Assay [6] concerns Trichoderma. Description: Antifungal activity against Trichoderma sp. at 25 ug/disk after 48 hr by disk diffusion method. As to conditions: read-out: DIZ.
Assay [7] concerns Escherichia coli. The experiment in a line: Antibacterial activity against Escherichia coli by microdilution method.
Assay [8] deals with Aspergillus flavus. The experiment in a line: Antifungal activity against Aspergillus flavus after 48 hr by microdilution method.
Assay [9] has as its system Penicillium sp. Description: Antifungal activity against Penicillium sp. after 48 hr by microdilution method.
The subject of assay [10] is Aspergillus flavus. Description: Antifungal activity against Aspergillus flavus at 25 ug/disk after 48 hr by disk diffusion method. The following applies: read-out: DIZ.
Assay [11] concerns Fusarium oxysporum. The experiment in a line: Antifungal activity against Fusarium oxysporum at 25 ug/disk after 48 hr by disk diffusion method. The following applies: read-out: DIZ.
Assay [12] has as its system Trichoderma. Description: Antifungal activity against Trichoderma sp. after 48 hr by microdilution method.
For assay [13], the system named is Fusarium verticillioides. The experiment in a line: Antifungal activity against Fusarium verticillioides after 48 hr by microdilution method.
Assay [14] concerns Xanthomonas euvesicatoria pv. sesami. The experiment in a line: Antibacterial activity against Xanthomonas campestris pv. sesami by microdilution method.
The test system of assay [15] is Fusarium verticillioides. The experiment in a line: Antifungal activity against Fusarium verticillioides at 25 ug/disk after 48 hr by disk diffusion method. The following applies: read-out: DIZ.
The test system of assay [16] is Penicillium sp. Description: Antifungal activity against Penicillium sp. at 25 ug/disk after 48 hr by disk diffusion method. As to conditions: read-out: DIZ.
In assay [17] the test system is Xanthomonas euvesicatoria pv. sesami. The experiment in a line: Antibacterial activity against Xanthomonas campestris pv. sesami at 25 ug/disk after 24 hr by disk diffusion method. As to conditions: read-out: DIZ.
The subject of assay [18] is Aspergillus niger. The experiment in a line: Antifungal activity against Aspergillus niger at 25 ug/disk after 48 hr by disk diffusion method. The following applies: read-out: DIZ.
Assay [19] deals with Bacillus subtilis. The experiment in a line: Antibacterial activity against Bacillus subtilis by microdilution method.
Assay [20] has as its system Aspergillus niger. Description: Antifungal activity against Aspergillus niger after 48 hr by microdilution method.
Assay [21] concerns Xanthomonas oryzae. Description: Antibacterial activity against Xanthomonas oryzae by microdilution method.
In assay [22] the test system is Fusarium oxysporum. The experiment in a line: Antifungal activity against Fusarium oxysporum after 48 hr by microdilution method.

Molecules are shown by their SMILES. Values after ≈ are worked out from the molar mass of the structure shown.

Regarding `CCOC(=O)C1CC(c2ccc(OCCc3ccc(CC)cn3)cc2)=NO1` (configuration not stated), the zone of inhibition at 25 µg/disc is 12 mm in [1]; 9 mm in assay [3]; 13 mm in assay [4]; 11 mm in [5]; 12 mm in [6]; 8 mm in [10]. The zone of inhibition at 25 µg/disc in [11] was determined as 11 mm; in assay [15], 9 mm; in assay [16], 8 mm; in assay [17] it was 9 mm; in assay [18], 6 mm. The MIC – broadly, the least concentration at which growth counts as inhibited – in assay [2] was found to be 16 µg/mL (≈ 43.4 µM); in [7] it was 16 µg/mL (≈ 43.4 µM); in assay [8] it was 18 µg/mL (≈ 48.9 µM); in assay [9] it was 11 µg/mL (≈ 29.9 µM); in [12], 14 µg/mL (≈ 38 µM); in assay [13] it was 12 µg/mL (≈ 32.6 µM). Also, the MIC worked out at 14 µg/mL (≈ 38 µM) in [14]; 20 µg/mL (≈ 54.3 µM) in assay [19]; 17 µg/mL (≈ 46.1 µM) in assay [20]; 16 µg/mL (≈ 43.4 µM) in [21]; 14 µg/mL (≈ 38 µM) in [22].
